According to paper PMC7405012, “Detection of Chaetomium globosum, Ch. cochliodes and Ch. rectangulare during the Diversity Tracking of Mycotoxin-Producing Chaetomium-like Isolates Obtained in Buildings in Finland” (Toxins, 2020):
Where two headings read alike, the source gives them in different places.

Key:
Assay in all cases: Resistance to biocides: conidial germination
[1] = test system: Aspergillus calidoustus MH4; assay type: cell-based; details: strain MH4, indoor Aspergillus calidoustus
Protocol: (§1) The toxicity of biocides and chemicals towards the indoor Chaetomium-like isolates and the reference indoor strains of the genera Aspergillus, Paecilomyces, Penicillium and Trichoderma was assessed in parallel with the six parameters presented in the Supplementary Materials: (1) germ tube assay (Figure S3); (2) estimation of turbidity (Figure S4); (3) visual emission of fluorescence (excitation at 360 nm); (4) visual resporulation of conidia; (5) inhibition of glucose consumption; and (6) resazurin reduction. All assays were performed in malt extract broth (12 g L^−1 malt extract, 7.2 µmol mL^−1 glucose, pH 5.5; Scharlab, Barcelona, Spain) in 96-well microtiter plates as described for the ICP assay.
(§2) The assays measuring inhibition of germination of conidia were done with spore suspensions of 1–2 × 10^6 fungal spores mL−^1. The tests were performed in malt extract broth (Oxoid, Hampshire United Kingdom) 12 g in 1 L, pH 5.5, glucose 7.1 mmol L^−1, and performed on microtiter plates as described by Bencsik et al. for the ICP assay. The germ tube germination is visualized in Figure S3, and the tests estimating turbidity and emission of fluorescence provoked by the germinated and metabolically active conidia and C. globosum ascospores are visualized in Figures S4 and S5. Examples of the tests estimating fluorescence emission, turbidity and re-sporulation of conidia and ascospores are compared in Figure S5. The difference of the endpoints measured with the different assays was between […]. The resazurin reduction assays (Figure S6) were performed as described for the ICP assay, except that the microtiter plates were visually inspected for the change of the blue/violet color of resazurin (indicating inhibition of germination of the exposed conidia) to the […] (indicating metabolic activity and germination of the exposed conidia).
(§3) The formation of germ tubes was inspected by a phase-contrast microscope (Olympus CKX41, Tokyo, Japan; magnification 400×) and an image recording software (Cellsense® standard version 11.0.06, Olympus Soft Imaging Solutions GmbH, Münster, Germany, 2012) after 1 and 2 days of incubation at 28 °C. The EC50 corresponded to the inhibition of 50% (estimated as the concentration between EC0 and EC100) of the conidia compared to the ethanol control (the growth medium containing 1% of ethanol). The tests were run in triplicate and calibrated with triclosan (CAS: 3380-34-5; Sigma Chemical Co., St. Louis, MO, USA) giving a mean SD of ±<20%.

[2] = test system: Aspergillus section Flavi 1/37; assay type: cell-based; details: strain 1/37, indoor Aspergillus section Flavi
Protocol: as §1, §2, §3

[3] = test system: Aspergillus section Flavi 7D; assay type: cell-based; details: strain 7D, indoor Aspergillus section Flavi
Protocol: as §1, §2, §3

[4] = test system: Aspergillus section Nigri Asp21; assay type: cell-based; details: strain Asp21, indoor Aspergillus section Nigri
Protocol: as §1, §2, §3

[5] = test system: Aspergillus section Nigri Asp33b; assay type: cell-based; details: strain Asp33b, indoor Aspergillus section Nigri
Protocol: as §1, §2, §3

[6] = test system: Aspergillus versicolor SL/3; assay type: cell-based; details: strain SL/3, Aspergillus versicolor
Protocol: as §1, §2, §3

[7] = test system: Aspergillus westerdijkiae PP2; assay type: cell-based; details: strain PP2, Aspergillus westerdijkiae
Protocol: as §1, §2, §3

[8] = test system: Indoor Trichoderma atroviride 14/AM; assay type: cell-based; details: strain 14/AM
Protocol: as §1, §2, §3

[9] = test system: Indoor Trichoderma atroviride KIV10; assay type: cell-based; details: strain KIV10, indoor Trichoderma atroviride
Protocol: as §1, §2, §3

[10] = test system: Indoor Trichoderma atroviride Ke14; assay type: cell-based; details: strain Ke14, indoor Trichoderma atroviride
Protocol: as §1, §2, §3

[11] = test system: Indoor Trichoderma atroviride Tri335; assay type: cell-based; details: strain Tri335, indoor Trichoderma atroviride
Protocol: as §1, §2, §3

[12] = test system: Indoor Trichoderma atroviride Tri7A/SKK; assay type: cell-based; details: strain Tri7A/SKK
Protocol: as §1, §2, §3

[13] = test system: Paecilomyces sp. Pec1/his; assay type: cell-based; details: strain Pec1/his, indoor Paecilomyces sp.
Protocol: as §1, §2, §3

[14] = test system: Paecilomyces sp. Pec1/skk; assay type: cell-based; details: strain Pec1/skk, indoor Paecilomyces sp.
Protocol: as §1, §2, §3

[15] = test system: Paecilomyces variotii Pac1/kop; assay type: cell-based; details: strain Pac1/kop, indoor Paecilomyces variotii
Protocol: as §1, §2, §3

[16] = test system: Paecilomyces variotii Pac2/kop; assay type: cell-based; details: strain Pac2/kop, indoor Paecilomyces variotii
Protocol: as §1, §2, §3

Penicillium sp. 26/skk = assay type: cell-based; details: strain 26/skk, indoor Penicillium sp.
Protocol: as §1, §2, §3

Penicillium sp. HJ2 = assay type: cell-based; details: strain HJ2, indoor Penicillium sp.
Protocol: as §1, §2, §3

[17] = test system: Trichoderma citrinoviride SJ40; assay type: cell-based; details: strain SJ40, indoor Trichoderma citrinoviride
Protocol: as §1, §2, §3

[18] = test system: Trichoderma longibrachiatum THG; assay type: cell-based; details: strain THG, indoor Trichoderma longibrachiatum
Protocol: as §1, §2, §3

[19] = test system: Outdoor T. atroviride SZMC 12323; assay type: cell-based, Trichoderma atroviride; details: strain SZMC 12323, outdoor T. atroviride
Protocol: as §1, §2, §3

[20] = test system: Outdoor T. atroviride SZMC 12474; assay type: cell-based, Trichoderma atroviride; details: strain SZMC 12474, outdoor T. atroviride
Protocol: as §1, §2, §3

[21] = test system: Outdoor T. atroviride SZMC 1723; assay type: cell-based, Trichoderma atroviride; details: strain SZMC 1723, outdoor T. atroviride
Protocol: as §1, §2, §3

[22] = test system: Outdoor T. atroviride SZMC 207080; assay type: cell-based, Trichoderma atroviride; details: strain SZMC 207080, outdoor T. atroviride
Protocol: as §1, §2, §3

[23] = Trichoderma atroviride, read-out: EC50

Measured: EC50

O=BOB(O)OB(O)OB=O [Borax, sodium tetraborate]
> 5000 µg/mL: Penicillium sp. 26/skk; SP.26/SKK, read-out: EC50
1200 µg/mL: [8]; read-out: EC50 | [10]; read-out: EC50 | [12]; read-out: EC50 | [17]; read-out: EC50 | [18]; read-out: EC50 | [19]; [23] | [21]; [23] | [22]; [23]
2500 µg/mL: [3]; FLAVI7D, read-out: EC50 | [9]; read-out: EC50 | [11]; read-out: EC50 | Penicillium sp. HJ2; read-out: EC50 | [20]; [23]
≥ 5000 µg/mL: [4]; read-out: EC50 | [5]; read-out: EC50 | [13]; read-out: EC50 | [14]; read-out: EC50 | [15]; read-out: EC50 | [16]; read-out: EC50
5000 µg/mL: [1]; read-out: EC50 | [2]; FLAVI1/37, read-out: EC50 | [6]; read-out: EC50 | [7]; read-out: EC50

NCl [Chloramine, chloramine]
2500 µg/mL: [12] | [19] | [20] | [21] | [22]
2400 µg/mL: [9]
600 µg/mL: [2] | [3] | [6] | [7] | Penicillium sp. 26/skk

OCCOc1ccccc1 [Phenoxy-ethanol, phenoxyethanol]
800 µg/mL: [6]; read-out: EC50 | Penicillium sp. HJ2; read-out: EC50
3000 µg/mL: [4]; read-out: EC50 | [5]; read-out: EC50 | [8]; read-out: EC50 | [9]; read-out: EC50 | [11]; read-out: EC50 | [13]; read-out: EC50 | [14]; read-out: EC50 | [15]; read-out: EC50 | [16]; read-out: EC50 | Penicillium sp. 26/skk; SP.26/SKK, read-out: EC50 | [20]; [23] | [22]; [23]
3200 µg/mL: [1]; read-out: EC50
1500 µg/mL: [2]; FLAVI1/37, read-out: EC50 | [3]; FLAVI7D, read-out: EC50 | [7]; read-out: EC50 | [10]; read-out: EC50 | [12]; read-out: EC50 | [17]; read-out: EC50 | [18]; read-out: EC50 | [19]; [23] | [21]; [23]

Oc1cc(Cl)ccc1Oc1ccc(Cl)cc1Cl [Triclosan, 5-Chloro-2-(2,4-dichlorophenoxy)phenol]
4 µg/mL: [14]; read-out: EC50 | [15]; read-out: EC50 | [16]; read-out: EC50
8 µg/mL: [2]; FLAVI1/37, read-out: EC50 | [3]; FLAVI7D, read-out: EC50 | Penicillium sp. HJ2; read-out: EC50 | [17]; read-out: EC50 | [20]; [23] | [22]; [23]
30 µg/mL: [4]; read-out: EC50 | [8]; read-out: EC50 | [9]; read-out: EC50 | [11]; read-out: EC50 | [13]; read-out: EC50 | Penicillium sp. 26/skk; SP.26/SKK, read-out: EC50 | [19]; [23]
16 µg/mL: [1]; read-out: EC50 | [5]; read-out: EC50 | [6]; read-out: EC50 | [7]; read-out: EC50 | [10]; read-out: EC50 | [12]; read-out: EC50 | [18]; read-out: EC50 | [21]; [23]

polyhexamethylene biguanide hydrochloride [PHMB]
1 µg/mL: Penicillium sp. HJ2 | [18]
16 µg/mL: [14]
60 µg/mL: [6] | [7]
2 µg/mL: [17]
8 µg/mL: [1] | [12] | [19] | [21] | [22]
4 µg/mL: [8] | [9] | [10] | [11] | [20]
30 µg/mL: [4] | [5] | [13] | [15] | [16] | Penicillium sp. 26/skk
120 µg/mL: [2] | [3]
